Results: ChEMBL document CHEMBL1201862, “PubChem BioAssay data set” (2004)
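Test compounds were applied to cells in 96-well plates for 48 hours at 5 doses. GI50 = concentration required for 50% inhibition of growth.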 The source made the active and inactive calls. Rule as the data show it: active = GI50 up to about 1.1 µM and inactive = higher.

tested on: BT-549; experiment: NCI-60 cell line screen, 48 h

| Structure (SMILES) | GI50 |
| --- | --- |
| COc1cc2c(c(OC)c1OC)-c1ccc(SC)cc1C(=O)CC2 | > 100 µM (inactive) |
| CC(=O)NC1=C(OS(=O)(=O)c2ccc(C)cc2)CN(C)C1=O | 3.09 µM (inactive) |
| O=C(N/N=C\c1cccc(O)c1)c1ccncc1 | > 100 µM (inactive) |
| CN(Cc1cccc2ccccc12)Cc1cccc2ccccc12 | 56.4 µM (inactive) |
| O=[N+]([O-])/C=C/c1c(Cl)cccc1Cl | 2.01 µM (inactive) |
| O=C1c2ccccc2C(=O)N1c1ccc(Cc2ccc(N3C(=O)c4ccccc4C3=O)cc2)cc1 | > 100 µM (inactive) |
| CCOC(=O)c1cc2c(ccc3cc(C(=O)OCC)[nH]c32)[nH]1 | 52.6 µM (inactive) |
| CCc1cc2c(c3c1CCCC3)CC1(Cc3ccc(C(=O)OC)cc3C1)C2 (stereo not given) | > 100 µM (inactive) |
| CCOc1cc(NC(C)=O)ccc1C(=O)NN1C(=O)/C(=C/c2cc(OC)c(OC)c(OC)c2)N=C1c1ccccc1 | 16.3 µM (inactive) |
| C=C1c2nc3ccccc3n2C=C(c2ccc(OC)cc2)N1c1ccc(OCCN2CCCCC2)cc1 | 11.7 µM (inactive) |
| CCN(CC)C(=S)SS(=O)(=O)c1cccc(N)c1 | > 100 µM (inactive) |
| COc1c(O)cc2c(c1O)C(=O)/C(=C/c1ccc(O)cc1)CO2 | 32.9 µM (inactive) |
| NC(=O)N/N=C1/CCC(O)CC1CC(=O)O (stereo not given) | > 100 µM (inactive) |
| Cc1ccc(C2=Nn3c(nc4sc(-c5ccccc5)cc4c3=O)SC2)cc1 | > 100 µM (inactive) |
| CC(C)NC(=O)OCc1c(COC(=O)NC(C)C)n(C)c2c1ccc1sccc12 | 2.96 µM (inactive) |
| COc1cc(C[C@@]2(C)[C@@H]3CCC[C@H](CO)[C@@]3(C)CC[C@@H]2C)c(Cl)c(OC)c1 | 17.6 µM (inactive) |
| CCOC(=O)c1cc2c([nH]1)c(O)cc1c2ccn1Cc1ccccc1 | 17.8 µM (inactive) |
| Cc1ccc(NC=O)c(-c2c(N)[nH]c(=S)[nH]c2=O)c1 | > 100 µM (inactive) |
| N[C@@H]1C[C@H](N)c2c(Cl)sc(Cl)c21 | > 100 µM (inactive) |
| CCCCN1C(=O)CS/C1=N/Nc1nc2c([nH]1)c(=O)n(C)c(=O)n2C | > 100 µM (inactive) |

| Structure (SMILES) | GI50 |
| --- | --- |
| C/C(=C/CO[Si](C)(C)C(C)(C)C)C(=O)N(C)c1ccccc1I | 20.8 µM (inactive) |
| COc1cccc(/C=N/NC(=O)CN(C)C)c1O | > 100 µM (inactive) |
| COC(=O)CC1CN(C(=O)OCc2ccccc2)C(C)(C)O1 (stereo not given) | 4.97 µM (inactive) |
| O=c1[nH]c2ccsc2c(=O)n1COCc1ccccc1 | > 100 µM (inactive) |
| COC(=O)C1=C(O)C(C(=O)OC)C2CC(=O)CC1C2(C)C (stereo not given) | > 100 µM (inactive) |
| COc1ccc(C2SCC(=O)N2NC(=O)c2ccc(NC(C)=O)cc2)c(OC)c1 (stereo not given) | > 100 µM (inactive) |
| CC1OC2OC3C(OCC(O)C3O)OC(=O)[C@]34CCC(C)(C)CC3C3=CCC5[C@@]6(C)C[C@H](O)[C@H](OC7OC(CO)C(O)C(O)C7OC7OCC(OC(=O)CC(C)(O)CC(=O)OC1C(O)C2O)C(O)C7O)[C@@](C)(CO)C6CC[C@@]5(C)[C@]3(C)CC4 (stereo not given in full) | 10.2 µM (inactive) |
| CC(C)C[P+](c1ccccc1)(c1ccccc1)c1ccccc1 | 4.75 µM (inactive) |
| CCOC(=O)c1nc2ccccc2nc1Oc1ccc(OC)cc1 | > 100 µM (inactive) |
| CCOC(=O)/C(=C\c1ccnc2ccccc12)P(=O)(OCC)OCC | 2.16 µM (inactive) |
| O=C(NCCCCCCNCc1cccc2ccccc12)Nc1cccc2ccccc12 | > 100 µM (inactive) |
| CCC1(C(=O)OC(C)(C)C)OC12C(C)CCCC2C (stereo not given) | > 100 µM (inactive) |
| O=C1CCSSCCC(=O)NCCN1 | > 100 µM (inactive) |
| CSC(=S)OC1CC(n2cnc3c(NC(=O)c4ccccc4)ncnc32)OC1CO[Si](C)(C)C(C)(C)C (stereo not given) | 16.5 µM (inactive) |
| C/C(=C\COc1ccc2ccc(=O)oc2c1)CCC(=O)C(C)(C)O | 18.1 µM (inactive) |
| CCOC(=O)Cc1csc2[n+]1C(=O)/C(=C/c1cccc(OC)c1O)S2 | 13.8 µM (inactive) |
| COc1ccc(CC2COc3cc(OC)cc(OC)c3C2=O)cc1 (stereo not given) | 44.2 µM (inactive) |
| CN(/N=C/c1ccc(OCc2cccc(COc3ccc(C=O)cc3)n2)cc1)c1cnn(-c2ccc(Cl)cc2Cl)c(=O)c1Cl | 66.7 µM (inactive) |
| C#C/C=C\CCCC/C=C\C#CC#CCCCC#CC#C[C@H](COS(=O)(=O)O)OS(=O)(=O)O | > 100 µM (inactive) |
| CS(=O)(=O)N1CC(CCl)c2ccc(O)cc21 (stereo not given) | 2.02 µM (inactive) |
